Laboratory results: ChEMBL document CHEMBL4800728, “Data for DCP probe JNJ-54119936” (2021)
The source made the active and inactive calls.

Assays:
[1] = target: NT-3 growth factor receptor (Homo sapiens) (UniProt Q16288); experiment: TrkC Invitrogen kinase panel; details: Compound concentration 10.0 uM
[2] = target: Tyrosine-protein kinase JAK2 (Homo sapiens) (UniProt O60674); experiment: JAK2 Invitrogen kinase panel; details: Compound concentration 10.0 uM
[3] = target: Aurora kinase B (Homo sapiens) (UniProt Q96GD4); experiment: Aurora_B Invitrogen kinase panel; details: Compound concentration 10.0 uM
[4] = target: 5-hydroxytryptamine receptor 2C (Homo sapiens) (UniProt P28335); details: Compound concentration 10.0 uM
[5] = target: Death-associated protein kinase 3 (Homo sapiens) (UniProt O43293); experiment: ZIPK Invitrogen kinase panel; details: Compound concentration 10.0 uM
Sequence of Death-associated protein kinase 3 (Homo sapiens) (O43293 whole entry, looked up): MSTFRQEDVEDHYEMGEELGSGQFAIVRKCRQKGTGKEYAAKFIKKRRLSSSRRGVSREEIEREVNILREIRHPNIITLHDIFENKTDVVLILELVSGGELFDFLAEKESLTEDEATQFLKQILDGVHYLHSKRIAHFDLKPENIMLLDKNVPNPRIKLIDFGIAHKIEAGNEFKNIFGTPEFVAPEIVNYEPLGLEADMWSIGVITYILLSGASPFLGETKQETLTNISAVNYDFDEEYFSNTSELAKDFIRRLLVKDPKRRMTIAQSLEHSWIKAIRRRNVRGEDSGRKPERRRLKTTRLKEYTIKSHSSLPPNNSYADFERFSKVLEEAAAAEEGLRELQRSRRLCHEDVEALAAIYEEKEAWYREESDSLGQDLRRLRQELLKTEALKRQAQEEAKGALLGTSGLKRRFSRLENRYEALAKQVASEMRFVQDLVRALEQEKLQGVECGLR

[6] = target: Protein kinase C beta type (Homo sapiens) (UniProt P05771); experiment: PKCbetaI Invitrogen kinase panel; details: Compound concentration 10.0 uM
Sequence of Protein kinase C beta type (Homo sapiens) (P05771 2-671 limits assumed): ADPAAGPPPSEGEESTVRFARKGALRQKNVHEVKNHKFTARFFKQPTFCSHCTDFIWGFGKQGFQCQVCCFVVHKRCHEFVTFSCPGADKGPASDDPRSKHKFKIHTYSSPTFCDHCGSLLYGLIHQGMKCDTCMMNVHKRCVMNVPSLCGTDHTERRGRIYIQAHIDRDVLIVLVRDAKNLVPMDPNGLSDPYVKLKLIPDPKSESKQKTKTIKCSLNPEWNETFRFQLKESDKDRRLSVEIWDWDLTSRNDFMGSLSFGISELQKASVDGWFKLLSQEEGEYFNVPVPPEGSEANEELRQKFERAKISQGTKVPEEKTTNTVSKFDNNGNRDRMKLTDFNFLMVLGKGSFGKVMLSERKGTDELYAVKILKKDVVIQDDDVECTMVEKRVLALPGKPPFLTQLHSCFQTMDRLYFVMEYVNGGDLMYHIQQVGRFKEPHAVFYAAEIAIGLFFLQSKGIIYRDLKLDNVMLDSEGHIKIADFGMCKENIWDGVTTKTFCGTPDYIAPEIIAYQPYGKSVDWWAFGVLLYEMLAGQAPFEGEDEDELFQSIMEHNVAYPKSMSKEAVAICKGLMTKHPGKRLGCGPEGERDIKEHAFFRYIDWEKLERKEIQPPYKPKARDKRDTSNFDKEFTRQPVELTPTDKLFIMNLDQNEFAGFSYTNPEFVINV

[7] = target: Nuclear receptor subfamily 1 group I member 3 (Homo sapiens, UniProt Q14994); experiment: (§1) CAR In-house nuclear receptor screen
[8] = target: T1, CAR (nuclear receptor subfamily 1 group I member 3) (Homo sapiens, UniProt Q14994); experiment: as §1; details: human; compound concentration 3 uM
T1 sequence (Q14994 whole entry): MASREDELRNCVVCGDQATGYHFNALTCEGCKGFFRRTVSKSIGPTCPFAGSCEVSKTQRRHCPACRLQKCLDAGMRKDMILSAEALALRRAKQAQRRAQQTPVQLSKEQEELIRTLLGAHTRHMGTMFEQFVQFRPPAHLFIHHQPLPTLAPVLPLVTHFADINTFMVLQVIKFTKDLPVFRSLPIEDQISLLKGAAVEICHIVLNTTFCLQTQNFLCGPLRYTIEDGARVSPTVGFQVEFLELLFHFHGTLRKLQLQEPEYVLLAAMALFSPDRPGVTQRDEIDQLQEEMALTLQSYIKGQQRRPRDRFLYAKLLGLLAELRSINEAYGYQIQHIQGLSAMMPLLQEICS

[9] = target: Casein kinase II subunit alpha (Homo sapiens) (UniProt P68400); experiment: CK2alpha1 Invitrogen kinase panel; details: Compound concentration 10.0 uM
[10] = target: T2, Nuclear receptor ROR-gamma (Homo sapiens, UniProt P51449); experiment: One-hybrid LBD; parameters: compound concentration 6 uM
T2 sequence (P51449 whole entry, the tested form may be a part, canonical isoform): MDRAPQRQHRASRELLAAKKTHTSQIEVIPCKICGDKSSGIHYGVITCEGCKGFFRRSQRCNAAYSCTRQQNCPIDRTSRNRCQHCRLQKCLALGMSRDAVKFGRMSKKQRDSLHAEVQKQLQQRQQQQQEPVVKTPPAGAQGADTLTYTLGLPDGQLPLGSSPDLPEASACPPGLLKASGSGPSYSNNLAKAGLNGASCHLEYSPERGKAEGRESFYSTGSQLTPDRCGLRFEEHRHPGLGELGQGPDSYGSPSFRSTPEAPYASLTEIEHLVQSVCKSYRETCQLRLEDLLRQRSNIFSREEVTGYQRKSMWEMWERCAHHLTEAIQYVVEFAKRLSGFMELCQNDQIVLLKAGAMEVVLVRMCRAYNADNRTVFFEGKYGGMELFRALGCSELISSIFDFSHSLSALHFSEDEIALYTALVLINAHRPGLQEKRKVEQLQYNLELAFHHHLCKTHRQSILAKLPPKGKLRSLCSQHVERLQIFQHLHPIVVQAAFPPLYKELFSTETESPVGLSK

[11] = target: Casein kinase I isoform epsilon (Homo sapiens) (UniProt P49674); experiment: CK1epsilon Invitrogen kinase panel; details: Compound concentration 10.0 uM
Sequence of Casein kinase I isoform epsilon (Homo sapiens) (P49674 whole entry, looked up, canonical isoform): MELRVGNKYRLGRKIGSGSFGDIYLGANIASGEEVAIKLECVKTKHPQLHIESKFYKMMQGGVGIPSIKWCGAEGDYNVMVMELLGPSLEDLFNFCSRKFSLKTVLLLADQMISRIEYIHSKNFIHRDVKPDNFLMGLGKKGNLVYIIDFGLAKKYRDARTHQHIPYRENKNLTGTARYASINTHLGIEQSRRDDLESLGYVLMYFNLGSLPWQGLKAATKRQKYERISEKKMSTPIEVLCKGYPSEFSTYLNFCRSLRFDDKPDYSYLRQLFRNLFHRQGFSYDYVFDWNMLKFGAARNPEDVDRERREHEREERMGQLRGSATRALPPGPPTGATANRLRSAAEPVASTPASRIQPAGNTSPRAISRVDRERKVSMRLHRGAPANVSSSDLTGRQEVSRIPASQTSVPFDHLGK

[12] = target: Glycogen synthase kinase-3 beta (Homo sapiens) (UniProt P49841); experiment: GSK3beta Invitrogen kinase panel; details: Compound concentration 10.0 uM
Sequence of Glycogen synthase kinase-3 beta (Homo sapiens) (P49841 whole entry, looked up): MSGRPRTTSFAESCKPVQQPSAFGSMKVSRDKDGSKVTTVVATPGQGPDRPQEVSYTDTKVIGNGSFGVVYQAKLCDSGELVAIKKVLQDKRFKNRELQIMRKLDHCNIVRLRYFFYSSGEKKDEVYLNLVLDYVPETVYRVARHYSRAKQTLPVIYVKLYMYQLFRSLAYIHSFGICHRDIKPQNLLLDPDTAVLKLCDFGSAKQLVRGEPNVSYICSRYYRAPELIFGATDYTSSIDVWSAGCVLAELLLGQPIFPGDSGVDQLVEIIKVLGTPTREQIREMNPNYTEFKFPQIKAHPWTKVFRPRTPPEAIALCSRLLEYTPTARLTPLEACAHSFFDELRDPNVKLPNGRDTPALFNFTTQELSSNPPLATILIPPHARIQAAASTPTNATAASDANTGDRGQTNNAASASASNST

[13] = target: Muscarinic acetylcholine receptor M3 (Homo sapiens) (UniProt P20309); experiment: M3 (h) CEREP screen
Sequence of Muscarinic acetylcholine receptor M3 (Homo sapiens) (P20309 whole entry, looked up): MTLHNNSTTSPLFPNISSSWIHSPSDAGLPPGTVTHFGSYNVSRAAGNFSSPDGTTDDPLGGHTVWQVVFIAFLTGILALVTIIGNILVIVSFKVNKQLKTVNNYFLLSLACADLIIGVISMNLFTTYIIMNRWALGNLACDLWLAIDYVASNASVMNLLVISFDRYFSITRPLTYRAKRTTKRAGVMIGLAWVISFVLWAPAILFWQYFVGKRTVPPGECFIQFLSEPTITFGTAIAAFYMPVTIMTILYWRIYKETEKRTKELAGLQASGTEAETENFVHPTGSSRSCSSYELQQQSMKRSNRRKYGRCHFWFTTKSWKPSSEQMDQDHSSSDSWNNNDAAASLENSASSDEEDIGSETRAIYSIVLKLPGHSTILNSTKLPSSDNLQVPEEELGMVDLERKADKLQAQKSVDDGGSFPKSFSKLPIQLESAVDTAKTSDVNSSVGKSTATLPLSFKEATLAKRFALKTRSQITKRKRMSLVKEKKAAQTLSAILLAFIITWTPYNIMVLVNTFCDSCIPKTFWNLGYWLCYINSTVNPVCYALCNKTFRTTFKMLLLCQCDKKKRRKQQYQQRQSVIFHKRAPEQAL

[14] = target: 5-hydroxytryptamine receptor 5A (Homo sapiens) (UniProt P47898); experiment: 5-HT5A (h) CEREP screen
Sequence of 5-hydroxytryptamine receptor 5A (Homo sapiens) (P47898 whole entry): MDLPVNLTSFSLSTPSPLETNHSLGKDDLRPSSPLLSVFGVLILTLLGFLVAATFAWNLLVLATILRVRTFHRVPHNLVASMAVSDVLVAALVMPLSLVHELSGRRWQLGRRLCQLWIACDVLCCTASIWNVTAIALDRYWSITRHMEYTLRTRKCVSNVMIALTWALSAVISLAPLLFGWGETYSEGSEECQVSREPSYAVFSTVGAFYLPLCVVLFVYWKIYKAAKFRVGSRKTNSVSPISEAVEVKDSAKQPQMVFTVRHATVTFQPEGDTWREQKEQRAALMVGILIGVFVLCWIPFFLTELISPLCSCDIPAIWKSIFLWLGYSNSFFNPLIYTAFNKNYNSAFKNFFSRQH

[15] = target: T3, Sigma intracellular receptor 2 (Homo sapiens, UniProt Q5BJF2); details: Compound concentration 10.0 uM
T3 sequence (Q5BJF2 whole entry): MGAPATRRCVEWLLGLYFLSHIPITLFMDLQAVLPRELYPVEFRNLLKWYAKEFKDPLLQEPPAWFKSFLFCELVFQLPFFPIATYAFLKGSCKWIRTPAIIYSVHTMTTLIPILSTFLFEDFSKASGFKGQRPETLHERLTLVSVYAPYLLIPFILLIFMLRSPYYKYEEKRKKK

[16] = target: T2, Nuclear receptor ROR-gamma; experiment: Human whole blood assay; assay type: tissue-based; parameters: compound concentration 10 uM
[17] = target: T4, Peroxisome proliferator-activated receptor delta (Homo sapiens) (UniProt Q03181); experiment: (§2) PPARdelta In-house nuclear receptor screen; details: Compound concentration 3.0 uM
T4 sequence (whole entry): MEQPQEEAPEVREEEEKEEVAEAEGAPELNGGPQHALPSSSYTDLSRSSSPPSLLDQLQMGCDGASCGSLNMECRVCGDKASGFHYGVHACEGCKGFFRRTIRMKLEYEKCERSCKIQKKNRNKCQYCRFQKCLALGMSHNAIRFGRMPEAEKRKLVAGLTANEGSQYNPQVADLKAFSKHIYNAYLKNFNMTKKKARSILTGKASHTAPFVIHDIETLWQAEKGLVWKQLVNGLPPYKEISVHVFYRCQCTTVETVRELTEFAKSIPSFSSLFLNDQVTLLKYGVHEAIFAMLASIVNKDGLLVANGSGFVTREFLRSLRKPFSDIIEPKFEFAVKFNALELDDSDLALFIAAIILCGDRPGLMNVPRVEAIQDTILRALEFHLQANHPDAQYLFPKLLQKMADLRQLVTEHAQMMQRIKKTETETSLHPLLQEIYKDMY

[18] = target: Peroxisome proliferator-activated receptor delta (Homo sapiens, UniProt Q03181); experiment: as §2
[19] = target: Mitogen-activated protein kinase 3 (Homo sapiens) (UniProt P27361); experiment: ERK1 Invitrogen kinase panel; details: Compound concentration 10.0 uM
[20] = target: Thyroid hormone receptor alpha (Homo sapiens) (UniProt P10827); experiment: TRalpha Indigo Bioscience nuclear receptor screen; details: Compound concentration 0.3 uM
[21] = target: 5-hydroxytryptamine receptor 2B (Homo sapiens) (UniProt P41595); details: Compound concentration 10.0 uM
[22] = target: Alpha-1B adrenergic receptor (Homo sapiens) (UniProt P35368); details: Compound concentration 10.0 uM
[23] = target: Histamine H1 receptor (Homo sapiens) (UniProt P35367); experiment: H1 (h) CEREP screen; details: Compound concentration 1.0 uM
Sequence of Histamine H1 receptor (Homo sapiens) (P35367 whole entry): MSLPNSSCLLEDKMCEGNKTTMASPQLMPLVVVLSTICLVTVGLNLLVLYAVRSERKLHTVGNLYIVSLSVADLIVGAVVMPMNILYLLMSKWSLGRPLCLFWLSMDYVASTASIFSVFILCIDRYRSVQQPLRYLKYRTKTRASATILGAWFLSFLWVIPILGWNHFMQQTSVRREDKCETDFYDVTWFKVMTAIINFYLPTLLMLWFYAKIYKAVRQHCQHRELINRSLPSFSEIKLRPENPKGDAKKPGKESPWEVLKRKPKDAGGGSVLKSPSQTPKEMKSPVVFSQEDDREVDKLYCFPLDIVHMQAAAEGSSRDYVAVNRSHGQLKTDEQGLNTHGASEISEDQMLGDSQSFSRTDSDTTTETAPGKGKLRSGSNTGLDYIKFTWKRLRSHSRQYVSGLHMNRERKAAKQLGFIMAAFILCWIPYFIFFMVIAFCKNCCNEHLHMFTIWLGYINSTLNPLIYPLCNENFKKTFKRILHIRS

[24] = target: Tyrosine-protein kinase Blk (Homo sapiens) (UniProt P51451); experiment: Blk Invitrogen kinase panel; details: Compound concentration 10.0 uM
[25] = target: Mu-type opioid receptor (Homo sapiens) (UniProt P35372); details: Compound concentration 10.0 uM
[26] = target: Rho-associated protein kinase 1 (Homo sapiens) (UniProt Q13464); experiment: ROCK_I Invitrogen kinase panel; details: Compound concentration 10.0 uM
[27] = target: Beta-2 adrenergic receptor (Homo sapiens) (UniProt P07550); details: Compound concentration 10.0 uM
Sequence of Beta-2 adrenergic receptor (Homo sapiens) (P07550 whole entry, looked up): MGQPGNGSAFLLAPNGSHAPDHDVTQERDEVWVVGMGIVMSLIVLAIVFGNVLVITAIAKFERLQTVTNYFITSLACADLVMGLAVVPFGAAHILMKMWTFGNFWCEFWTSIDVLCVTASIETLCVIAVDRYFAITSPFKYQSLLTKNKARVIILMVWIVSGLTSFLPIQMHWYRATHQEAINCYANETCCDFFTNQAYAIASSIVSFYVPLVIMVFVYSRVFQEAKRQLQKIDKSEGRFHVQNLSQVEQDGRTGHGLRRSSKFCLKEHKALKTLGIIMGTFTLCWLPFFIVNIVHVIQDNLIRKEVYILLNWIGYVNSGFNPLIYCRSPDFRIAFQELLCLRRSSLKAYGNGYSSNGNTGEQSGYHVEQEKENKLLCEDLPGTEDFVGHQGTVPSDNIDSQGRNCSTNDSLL

[28] = target: Alpha-2C adrenergic receptor (Homo sapiens) (UniProt P18825); details: Compound concentration 10.0 uM
[29] = target: T3, Sigma intracellular receptor 2; experiment: GPCRScan assay: inhibition of Sigma 2; parameters: radioligand conc. used [nm] 5.0, parental cells HEKT
[30] = target: Beta-3 adrenergic receptor (Homo sapiens) (UniProt P13945); details: Compound concentration 10.0 uM
[31] = target: Serine/threonine-protein kinase Chk2 (Homo sapiens) (UniProt O96017); experiment: CHK2 Invitrogen kinase panel; details: Compound concentration 10.0 uM
[32] = target: Endothelin-1 receptor (Homo sapiens) (UniProt P25101); experiment: ETA (h) CEREP screen; details: Compound concentration 10.0 uM
[33] = target: 5-hydroxytryptamine receptor 1A (Homo sapiens) (UniProt P08908); details: Compound concentration 10.0 uM
[34] = target: Calcium/calmodulin-dependent protein kinase type 1D (Homo sapiens) (UniProt Q8IU85); experiment: CaMKIdelta Invitrogen kinase panel; details: Compound concentration 10.0 uM
Sequence of Calcium/calmodulin-dependent protein kinase type 1D (Homo sapiens) (Q8IU85 whole entry, looked up): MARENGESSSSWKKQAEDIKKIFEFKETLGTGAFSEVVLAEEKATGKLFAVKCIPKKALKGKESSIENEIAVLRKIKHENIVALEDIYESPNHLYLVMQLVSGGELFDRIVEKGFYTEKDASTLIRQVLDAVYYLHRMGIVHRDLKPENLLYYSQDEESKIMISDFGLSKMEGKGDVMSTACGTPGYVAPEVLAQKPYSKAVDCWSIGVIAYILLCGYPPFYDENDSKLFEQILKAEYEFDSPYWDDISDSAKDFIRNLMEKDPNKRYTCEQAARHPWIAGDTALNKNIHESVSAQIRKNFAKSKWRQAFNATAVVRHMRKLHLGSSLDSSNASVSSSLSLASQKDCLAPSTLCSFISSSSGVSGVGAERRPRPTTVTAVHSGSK

[35] = target: voltage-dependent K+ channel (Homo sapiens, UniProt O43525+O43526+O95259+P16389+P17658+P22001+P22459+P22460+P48547+P51787+P56696+Q03721+Q09470+Q12809+Q14003+Q14721+Q16322+Q6PIU1+Q8NCM2+Q8TAE7+Q8TDN1+Q8TDN2+Q92953+Q96KK3+Q96L42+Q96PR1+Q96RP8+Q9BQ31+Q9H252+Q9H3M0+Q9NR82+Q9NS40+Q9NSA2+Q9NZV8+Q9UIX4+Q9UJ96+Q9UK17+Q9ULD8+Q9ULS6+Q9UQ05); experiment: K+ channel (Volt-dependent) CEREP screen; assay type: protein assay; details: compound concentration 10 uM

COc1nc2ccc([C@@](O)(c3ccccc3)C3CCN(C(C)=O)CC3)cc2c(Cl)c1Cc1ccc(-n2cccn2)cc1 [JNJ-54119936]
31.2% (not active): inhibition at 3 µM [8]
8.4 µM: IC50 [7]
5.9 µM: IC50 [18]
603 nM: Ki ([29]; read-out: pKi (converted))
inactive: inhibition [1] 3% | inhibition [2] 6% | inhibition [3] 21% | inhibition [4] 21.2% | inhibition [5] 10% | inhibition [6] 1% | inhibition [9] 2% | inhibition [11] 0% | inhibition [12] 3% | inhibition ([13]; Compound concentration 1.0 uM) 21% | inhibition ([13]; Compound concentration 10.0 uM) 19% | inhibition ([14]; Compound concentration 1.0 uM) 13% | inhibition ([14]; Compound concentration 10.0 uM) 23% | inhibition [17] 37.3% | inhibition [19] 10% | inhibition [20] -5.63% | inhibition [21] 18.7% | inhibition [22] -4.69% | inhibition [23] 10% | inhibition [24] 0% | inhibition [25] 25.6% | inhibition [26] 4% | inhibition [27] 15.6% | inhibition [28] 39.8% | inhibition [30] 39.4% | inhibition [31] 6% | inhibition [32] 12% | inhibition [33] 16.6% | inhibition [34] 7%
active: IC50 [10] 30 nM | inhibition [15] 65.8% | IC50 [16] 332 nM
637 nM: Ki ([29]; read-out: Ki)
15% (not active): inhibition at 10 µM [35]
